Legend:
[1] = target: Beta-3 adrenergic receptor (Homo sapiens, UniProt P13945); assay: DRUGMATRIX: Adrenergic beta3 radioligand binding (ligand: [125I] Cyanopindolol); type: cell membranes, HEK293, Membrane; conditions: hek293; Not Active = under 50% inhibition at 10 µM
[2] = target: Vasopressin V1a receptor (Homo sapiens, UniProt P37288); type: cell membranes, Membrane; conditions: hek293; note: in other assays of this panel Not Active means under 50% inhibition at 10 µM
[3] = DRUGMATRIX: Phorbol Ester radioligand binding (ligand: [3H] PDBu); type: cell membranes, Mus musculus, ICR, Brain, Membrane; conditions: Not Active = under 50% inhibition at 10 µM
[4] = target: Mu-type opioid receptor (Homo sapiens, UniProt P35372); assay: DRUGMATRIX: Opiate mu (OP3, MOP) radioligand binding (ligand: [3H] Diprenorphine); type: cell membranes, CHO-K1, Membrane; conditions: cho-k1; Not Active = under 50% inhibition at 10 µM
Chain of Mu-type opioid receptor (P35372 whole entry): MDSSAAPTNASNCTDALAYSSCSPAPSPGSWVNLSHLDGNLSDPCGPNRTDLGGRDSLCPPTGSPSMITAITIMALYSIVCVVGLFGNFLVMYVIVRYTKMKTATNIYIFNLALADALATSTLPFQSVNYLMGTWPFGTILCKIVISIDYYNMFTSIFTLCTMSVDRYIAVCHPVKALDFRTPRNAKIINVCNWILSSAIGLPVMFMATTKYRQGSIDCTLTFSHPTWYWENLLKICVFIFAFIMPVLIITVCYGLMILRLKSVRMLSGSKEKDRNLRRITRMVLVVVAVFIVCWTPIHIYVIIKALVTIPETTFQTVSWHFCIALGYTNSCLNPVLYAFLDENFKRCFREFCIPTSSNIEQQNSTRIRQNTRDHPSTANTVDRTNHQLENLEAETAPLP

[5] = target: Receptor tyrosine-protein kinase erbB-2 (Homo sapiens, UniProt P04626); assay: biochemical; type: cell-based, Insect cells;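 note: inhibition of HER2 kinase enzyme activity, measured with Poly(Glu:Tyr) as the phosphorylation substrate; in other assays of this panel Not Active means under 50% inhibition at 10 µM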
Chain of Receptor tyrosine-protein kinase erbB-2 (P04626 whole entry): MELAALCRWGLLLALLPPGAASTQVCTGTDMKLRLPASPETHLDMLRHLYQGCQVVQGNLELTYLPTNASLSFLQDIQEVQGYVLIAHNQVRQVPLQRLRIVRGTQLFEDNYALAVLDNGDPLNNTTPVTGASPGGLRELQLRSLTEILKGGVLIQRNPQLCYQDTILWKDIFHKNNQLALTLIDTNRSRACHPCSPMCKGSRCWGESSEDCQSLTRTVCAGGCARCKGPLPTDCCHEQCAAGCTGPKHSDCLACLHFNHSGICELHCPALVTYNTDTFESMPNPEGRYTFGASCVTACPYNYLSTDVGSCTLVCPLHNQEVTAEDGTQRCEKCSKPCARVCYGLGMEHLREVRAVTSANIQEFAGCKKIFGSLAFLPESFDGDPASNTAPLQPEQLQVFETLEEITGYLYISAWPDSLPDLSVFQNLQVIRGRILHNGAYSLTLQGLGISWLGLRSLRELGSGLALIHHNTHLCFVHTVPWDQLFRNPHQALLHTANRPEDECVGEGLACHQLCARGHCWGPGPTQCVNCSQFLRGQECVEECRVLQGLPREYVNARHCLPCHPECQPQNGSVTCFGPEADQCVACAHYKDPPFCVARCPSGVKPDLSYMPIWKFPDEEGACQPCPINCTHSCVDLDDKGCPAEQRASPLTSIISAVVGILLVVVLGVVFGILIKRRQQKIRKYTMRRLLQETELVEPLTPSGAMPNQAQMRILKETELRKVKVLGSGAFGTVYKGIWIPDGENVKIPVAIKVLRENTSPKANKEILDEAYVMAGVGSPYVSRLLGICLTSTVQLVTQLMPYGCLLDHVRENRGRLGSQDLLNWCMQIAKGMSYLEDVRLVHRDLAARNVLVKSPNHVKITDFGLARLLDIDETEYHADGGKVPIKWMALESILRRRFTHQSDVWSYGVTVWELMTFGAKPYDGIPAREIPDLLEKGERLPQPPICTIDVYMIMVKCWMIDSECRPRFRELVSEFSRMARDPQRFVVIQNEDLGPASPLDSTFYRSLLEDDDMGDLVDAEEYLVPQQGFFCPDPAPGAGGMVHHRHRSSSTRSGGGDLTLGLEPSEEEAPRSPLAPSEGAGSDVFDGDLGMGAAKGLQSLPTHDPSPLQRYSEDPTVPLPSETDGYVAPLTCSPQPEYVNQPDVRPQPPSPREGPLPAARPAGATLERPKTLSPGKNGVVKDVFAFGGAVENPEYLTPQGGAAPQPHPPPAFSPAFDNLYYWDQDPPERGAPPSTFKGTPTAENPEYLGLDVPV

[6] = target: T1, C-X-C chemokine receptor type 1 (Homo sapiens, UniProt P25024); note: in other assays of this panel Not Active means under 50% inhibition at 10 µM
T1 sequence (P25024 whole entry): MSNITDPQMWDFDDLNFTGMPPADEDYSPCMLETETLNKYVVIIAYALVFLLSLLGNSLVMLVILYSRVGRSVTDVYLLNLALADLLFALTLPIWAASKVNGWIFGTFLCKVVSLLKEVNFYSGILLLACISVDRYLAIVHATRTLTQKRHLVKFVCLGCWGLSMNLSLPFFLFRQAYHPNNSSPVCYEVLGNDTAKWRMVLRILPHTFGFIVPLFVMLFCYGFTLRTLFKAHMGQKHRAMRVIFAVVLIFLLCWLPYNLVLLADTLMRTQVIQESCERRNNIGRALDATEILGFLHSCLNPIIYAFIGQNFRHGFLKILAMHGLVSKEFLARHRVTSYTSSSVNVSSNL

[7] = DRUGMATRIX: Phosphodiesterase PDE3 enzyme inhibition (substrate: [3H]cAMP + cAMP); type: tissue-based, Homo sapiens; conditions: platelet; Not Active = under 50% inhibition at 10 µM
[8] = DRUGMATRIX: Glutamate, AMPA radioligand binding (ligand: [3H] AMPA); type: cell membranes, Rattus norvegicus, Wistar, Cerebral cortex, Membrane; conditions: Not Active = under 50% inhibition at 10 µM
[9] = target: T2, Type-2 angiotensin II receptor (Homo sapiens, UniProt P50052); type: cell-based; conditions: cho-k1; note: in other assays of this panel Not Active means under 50% inhibition at 10 µM
T2 sequence (P50052 whole entry): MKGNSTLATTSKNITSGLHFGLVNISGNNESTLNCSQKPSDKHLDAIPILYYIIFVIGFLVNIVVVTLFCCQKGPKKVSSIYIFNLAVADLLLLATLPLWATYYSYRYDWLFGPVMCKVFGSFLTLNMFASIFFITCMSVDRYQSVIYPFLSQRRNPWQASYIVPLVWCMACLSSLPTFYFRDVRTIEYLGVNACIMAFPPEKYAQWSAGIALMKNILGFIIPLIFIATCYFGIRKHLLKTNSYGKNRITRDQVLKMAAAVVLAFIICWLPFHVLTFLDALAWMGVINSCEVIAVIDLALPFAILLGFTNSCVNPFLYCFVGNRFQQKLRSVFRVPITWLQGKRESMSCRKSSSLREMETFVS

[10] = DRUGMATRIX: Calcium Channel Type L, Dihydropyridine radioligand binding (ligand: [3H] Nitrendipine); type: cell membranes, Rattus norvegicus, Wistar, Cerebral cortex, Membrane; conditions: Not Active = under 50% inhibition at 10 µM
[11] = DRUGMATRIX: Serotonin (5-Hydroxytryptamine) 5-HT3 radioligand binding (ligand: [3H] GR-65630); type: cell membranes, Membrane; conditions: hek293; Not Active = under 50% inhibition at 10 µM
[12] = target: T3, Adenosine receptor A3 (Homo sapiens, UniProt P0DMS8); type: cell membranes, CHO-K1, Membrane; conditions: cho-k1
T3 sequence (P0DMS8 whole entry): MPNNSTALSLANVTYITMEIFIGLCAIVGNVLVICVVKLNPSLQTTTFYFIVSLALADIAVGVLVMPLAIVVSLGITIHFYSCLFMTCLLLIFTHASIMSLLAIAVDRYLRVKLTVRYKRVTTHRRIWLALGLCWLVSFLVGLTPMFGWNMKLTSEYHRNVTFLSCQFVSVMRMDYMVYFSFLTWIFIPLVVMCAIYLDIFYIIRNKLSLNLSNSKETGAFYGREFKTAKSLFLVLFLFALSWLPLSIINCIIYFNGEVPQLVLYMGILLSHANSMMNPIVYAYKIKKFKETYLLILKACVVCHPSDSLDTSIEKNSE

[13] = target: T4, B2 bradykinin receptor (Homo sapiens, UniProt P30411); type: cell membranes, Membrane; conditions: chem-1; note: in other assays of this panel Not Active means under 50% inhibition at 10 µM
T4 sequence (P30411 whole entry): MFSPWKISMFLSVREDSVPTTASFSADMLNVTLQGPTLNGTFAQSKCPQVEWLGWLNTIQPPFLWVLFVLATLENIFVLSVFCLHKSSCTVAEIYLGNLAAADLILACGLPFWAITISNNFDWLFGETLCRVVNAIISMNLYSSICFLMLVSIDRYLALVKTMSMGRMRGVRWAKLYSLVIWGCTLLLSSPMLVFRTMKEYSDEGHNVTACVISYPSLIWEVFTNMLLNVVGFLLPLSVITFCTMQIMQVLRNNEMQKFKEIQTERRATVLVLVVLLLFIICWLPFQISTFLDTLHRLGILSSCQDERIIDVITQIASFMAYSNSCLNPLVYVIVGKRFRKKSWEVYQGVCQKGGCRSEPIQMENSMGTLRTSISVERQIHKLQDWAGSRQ

[14] = target: Mitogen-activated protein kinase 1 (Homo sapiens, UniProt P28482); assay: DRUGMATRIX: Protein Serine/Threonine Kinase, ERK2 enzyme inhibition (substrate: Myelin Basic Protein); design: species or system Escherichia coli; conditions: Not Active = under 50% inhibition at 10 µM
Chain of Mitogen-activated protein kinase 1 (P28482 whole entry): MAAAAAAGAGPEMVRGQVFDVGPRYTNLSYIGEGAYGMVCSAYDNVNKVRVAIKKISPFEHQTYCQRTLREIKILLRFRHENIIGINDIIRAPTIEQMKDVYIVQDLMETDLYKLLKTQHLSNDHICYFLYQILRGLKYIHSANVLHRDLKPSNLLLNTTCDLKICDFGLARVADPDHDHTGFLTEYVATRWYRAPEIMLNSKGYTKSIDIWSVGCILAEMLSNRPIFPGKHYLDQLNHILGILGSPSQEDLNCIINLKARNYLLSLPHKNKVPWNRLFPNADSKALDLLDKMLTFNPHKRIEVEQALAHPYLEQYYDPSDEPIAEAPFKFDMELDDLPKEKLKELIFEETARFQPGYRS

[15] = target: T5, Caspase-1 (Homo sapiens, UniProt P29466); design: species or system Escherichia coli
T5 sequence (P29466 whole entry): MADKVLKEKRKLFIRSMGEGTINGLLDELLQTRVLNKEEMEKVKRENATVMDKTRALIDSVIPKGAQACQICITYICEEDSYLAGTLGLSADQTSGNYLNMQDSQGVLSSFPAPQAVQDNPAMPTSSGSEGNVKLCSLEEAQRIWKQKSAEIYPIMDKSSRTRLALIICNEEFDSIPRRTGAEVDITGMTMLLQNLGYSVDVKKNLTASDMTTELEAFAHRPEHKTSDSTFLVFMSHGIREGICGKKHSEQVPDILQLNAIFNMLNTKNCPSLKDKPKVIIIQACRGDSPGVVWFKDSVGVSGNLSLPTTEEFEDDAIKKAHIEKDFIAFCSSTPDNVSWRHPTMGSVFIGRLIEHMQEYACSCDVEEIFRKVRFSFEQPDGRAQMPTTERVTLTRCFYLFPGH

[16] = target: Carbonic anhydrase 2 (Homo sapiens, UniProt P00918); assay: DRUGMATRIX: Carbonic Anhydrase II enzyme inhibition (substrate: 4-Nitrophenyl acetate (4-NPA)); type: tissue-based, Erythrocyte; conditions: erythrocyte; Not Active = under 50% inhibition at 10 µM

Chain of Vasopressin V1a receptor (P37288 whole entry): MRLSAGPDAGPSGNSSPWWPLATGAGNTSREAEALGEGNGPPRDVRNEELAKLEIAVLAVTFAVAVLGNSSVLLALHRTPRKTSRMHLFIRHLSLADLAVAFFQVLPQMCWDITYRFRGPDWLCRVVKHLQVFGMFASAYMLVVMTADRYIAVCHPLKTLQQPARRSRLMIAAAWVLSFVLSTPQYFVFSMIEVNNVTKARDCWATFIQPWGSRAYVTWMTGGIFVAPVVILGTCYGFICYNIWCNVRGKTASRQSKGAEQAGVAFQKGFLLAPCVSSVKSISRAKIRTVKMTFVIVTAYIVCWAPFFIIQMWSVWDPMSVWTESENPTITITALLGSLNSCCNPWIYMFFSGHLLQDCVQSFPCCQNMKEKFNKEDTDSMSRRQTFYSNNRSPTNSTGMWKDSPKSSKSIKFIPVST
Chain of Beta-3 adrenergic receptor (P13945 whole entry): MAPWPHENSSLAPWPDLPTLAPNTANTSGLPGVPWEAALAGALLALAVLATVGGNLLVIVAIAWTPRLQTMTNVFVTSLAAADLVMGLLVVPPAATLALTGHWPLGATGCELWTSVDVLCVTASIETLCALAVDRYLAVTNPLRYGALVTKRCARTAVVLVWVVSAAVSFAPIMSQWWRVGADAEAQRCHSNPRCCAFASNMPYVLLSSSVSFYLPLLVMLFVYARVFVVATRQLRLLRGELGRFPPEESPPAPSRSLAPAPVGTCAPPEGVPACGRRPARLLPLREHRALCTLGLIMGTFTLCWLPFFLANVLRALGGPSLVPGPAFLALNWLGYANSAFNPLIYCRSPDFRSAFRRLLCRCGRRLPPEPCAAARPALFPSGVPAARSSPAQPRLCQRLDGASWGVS

O=C1c2c(O)ccc(O)c2C(=O)c2c(NCCNCCO)ccc(NCCNCCO)c21 [MITOXANTRONE]
Not Active: IC50 [1] | IC50 [2] | IC50 [3] | Ki [3] | IC50 [4] | IC50 [6] | IC50 [7] | Ki [7] | IC50 [8] | Ki [8] | IC50 [9] | IC50 [10] | Ki [10] | IC50 [11] | Ki [11] | IC50 [12] | IC50 [13] | IC50 [14] | IC50 [15] | IC50 [16]
2.04 µM: IC50 ([5]; read-out: IC50)

COc1c(C)c2c(c(O)c1C/C=C(\C)CCC(=O)OCCN1CCOCC1)C(=O)OC2 [MYCOPHENOLATE MOFETIL]
Not Active: IC50 [1] | IC50 [2] | IC50 [3] | Ki [3] | IC50 [4] | IC50 ([5]; insect cells) | IC50 [6] | IC50 [7] | Ki [7] | IC50 [8] | Ki [8] | IC50 [9] | IC50 [10] | Ki [10] | IC50 [11] | Ki [11] | IC50 [12] | IC50 [13] | IC50 [14] | IC50 [15] | IC50 [16]

CC(=O)[C@H]1CC[C@H]2[C@@H]3CCC4=CC(=O)CC[C@]4(C)[C@H]3CC[C@]12C [PROGESTERONE]
Not Active: IC50 [1] | IC50 [2] | IC50 [3] | Ki [3] | IC50 [4] | IC50 ([5]; insect cells) | IC50 [6] | IC50 [7] | Ki [7] | IC50 [8] | Ki [8] | IC50 [9] | IC50 [10] | Ki [10] | IC50 [11] | Ki [11] | IC50 [12] | IC50 [13] | IC50 [14] | IC50 [15] | IC50 [16]

NC(=O)c1ncn([C@@H]2O[C@H](CO)[C@@H](O)[C@H]2O)n1 [RIBAVIRIN]
Not Active: IC50 [1] | IC50 [2] | IC50 [3] | Ki [3] | IC50 [4] | IC50 ([5]; insect cells) | IC50 [6] | IC50 [7] | Ki [7] | IC50 [8] | Ki [8] | IC50 [9] | IC50 [10] | Ki [10] | IC50 [11] | Ki [11] | IC50 [12] | IC50 [13] | IC50 [14] | IC50 [15] | IC50 [16]

CC[C@H]1OC(=O)[C@H](C)[C@@H](O[C@H]2C[C@@](C)(OC)[C@@H](O)[C@H](C)O2)[C@H](C)[C@@H](O[C@@H]2O[C@H](C)C[C@H](N(C)C)[C@H]2O)[C@](C)(O)C[C@@H](C)/C(=N\OCOCCOC)[C@H](C)[C@@H](O)[C@]1(C)O [ROXITHROMYCIN]
Not Active: IC50 [1] | IC50 [2] | IC50 [3] | Ki [3] | IC50 [4] | IC50 ([5]; insect cells) | IC50 [6] | IC50 [7] | Ki [7] | IC50 [8] | Ki [8] | IC50 [9] | IC50 [10] | Ki [10] | IC50 [11] | Ki [11] | IC50 [12] | IC50 [13] | IC50 [14] | IC50 [15] | IC50 [16]

NC(=O)c1ccccc1O [SALICYLAMIDE]
Not Active: IC50 [1] | IC50 [2] | IC50 [3] | Ki [3] | IC50 [4] | IC50 ([5]; insect cells) | IC50 [6] | IC50 [7] | Ki [7] | IC50 [8] | Ki [8] | IC50 [9] | IC50 [10] | Ki [10] | IC50 [11] | Ki [11] | IC50 [12] | IC50 [13] | IC50 [14] | IC50 [15] | IC50 [16]

Cc1ncc([N+](=O)[O-])n1CC(C)O (configuration not stated) [SECNIDAZOLE]
Not Active: IC50 [1] | IC50 [2] | IC50 [3] | Ki [3] | IC50 [4] | IC50 ([5]; insect cells) | IC50 [6] | IC50 [7] | Ki [7] | IC50 [8] | Ki [8] | IC50 [9] | IC50 [10] | Ki [10] | IC50 [11] | Ki [11] | IC50 [12] | IC50 [13] | IC50 [14] | IC50 [15] | IC50 [16]
